# Data from patent US10189841B2, “Purinones as ubiquitin-specific protease 1 inhibitors” (Forma Therapeutics, Inc., priority 2015, dated 2019).
# Molecular target: USP1 (construct USP1 (I-785, GG670, 671AA)/UAF1 (I-677)-Flag) (Homo sapiens (Human), UniProt O94782, G670A/G671A)
# Assay: Ubiquitin-Rhodamine 110 assay for USP1 activity
# Format: biochemical
# Settings: USP1/UAF1 25 pM, Ub-Rh110 25 nM, 30 min preincubation
# Outline: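 Ub-Rh110 (25 nM, ≪Km) cleavage read at ex 485/em 535 in Tris pH 8.0, CaCl2, GSH, Prionex, Triton X-100. The screen used 10 µM compound, 100 pM USP1/UAF1 and 45 min at RT.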
# Sequence of USP1 (construct USP1 (I-785, GG670, 671AA)/UAF1 (I-677)-Flag) (O94782 whole entry G670A/G671A): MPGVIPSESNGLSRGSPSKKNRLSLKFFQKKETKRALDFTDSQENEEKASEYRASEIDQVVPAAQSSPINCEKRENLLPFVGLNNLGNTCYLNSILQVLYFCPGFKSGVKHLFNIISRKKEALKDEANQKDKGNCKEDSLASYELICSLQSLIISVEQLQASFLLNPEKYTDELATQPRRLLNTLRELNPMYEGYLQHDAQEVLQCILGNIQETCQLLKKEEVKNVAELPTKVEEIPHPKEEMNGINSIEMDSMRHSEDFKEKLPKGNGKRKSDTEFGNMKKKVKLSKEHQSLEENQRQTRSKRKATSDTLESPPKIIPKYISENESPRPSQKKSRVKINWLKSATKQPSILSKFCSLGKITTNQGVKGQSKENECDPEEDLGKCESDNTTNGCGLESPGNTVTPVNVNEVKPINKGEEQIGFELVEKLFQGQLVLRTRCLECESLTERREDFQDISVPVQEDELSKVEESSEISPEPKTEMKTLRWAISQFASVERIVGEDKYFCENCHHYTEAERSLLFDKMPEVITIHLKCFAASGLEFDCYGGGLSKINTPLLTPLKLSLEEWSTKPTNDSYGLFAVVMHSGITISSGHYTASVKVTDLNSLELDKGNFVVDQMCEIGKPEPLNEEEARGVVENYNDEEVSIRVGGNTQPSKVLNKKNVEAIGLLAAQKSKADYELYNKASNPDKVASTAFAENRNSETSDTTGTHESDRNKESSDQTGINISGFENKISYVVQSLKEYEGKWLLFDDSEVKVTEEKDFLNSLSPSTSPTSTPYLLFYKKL
# Sequence of USP1 (construct USP1 (I-785, GG670, 671AA)/UAF1 (I-677)-Flag) (Q8TAF3 whole entry partner): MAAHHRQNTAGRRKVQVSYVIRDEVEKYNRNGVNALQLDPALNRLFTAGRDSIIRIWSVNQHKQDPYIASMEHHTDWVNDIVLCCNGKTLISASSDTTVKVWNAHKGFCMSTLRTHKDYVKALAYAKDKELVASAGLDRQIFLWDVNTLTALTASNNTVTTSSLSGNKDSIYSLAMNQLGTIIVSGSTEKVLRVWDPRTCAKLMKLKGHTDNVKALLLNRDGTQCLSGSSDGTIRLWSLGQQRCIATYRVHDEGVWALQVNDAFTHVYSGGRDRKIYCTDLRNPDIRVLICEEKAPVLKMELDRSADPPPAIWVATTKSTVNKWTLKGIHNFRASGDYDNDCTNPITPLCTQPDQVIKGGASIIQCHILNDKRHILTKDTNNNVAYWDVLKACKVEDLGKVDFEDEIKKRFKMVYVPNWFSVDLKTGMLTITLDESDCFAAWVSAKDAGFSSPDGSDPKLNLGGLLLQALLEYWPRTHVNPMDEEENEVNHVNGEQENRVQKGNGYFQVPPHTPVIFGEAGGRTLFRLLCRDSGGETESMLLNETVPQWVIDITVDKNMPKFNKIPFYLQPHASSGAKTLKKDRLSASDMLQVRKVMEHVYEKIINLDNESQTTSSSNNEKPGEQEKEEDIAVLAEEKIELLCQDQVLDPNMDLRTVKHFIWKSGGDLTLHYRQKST
row,SMILES,IC50 [nM]
1,"Cn1cc(C(F)(F)F)nc1-c1ccc(Cn2c(=O)[nH]c3cnc(-c4cccnc4NC4CCOCC4)nc32)cc1 [Compound I-321, 9-(4-(1-methyl-4-(trifluoromethyl)-1H-imidazol-2-yl)benzyl)-2-(2-((tetrahydro-2H-pyran-4-yl)amino)pyridin-3-yl)-7,9-dihydro-8H-purin-8-one]",200 to 2000
2,"Cn1cc(C(F)(F)F)nc1-c1ccc(Cn2c(=O)[nH]c3cnc(-c4cccnc4N[C@H]4CCOC4)nc32)cc1 [Compound I-322, (S)-9-(4-(1-methyl-4-(trifluoromethyl)-1H-imidazol-2-yl)benzyl)-2-(2-((tetrahydrofuran-3-yl)amino)pyridin-3-yl)-7,9-dihydro-8H-purin-8-one]",50 to 200
3,"CN(C)c1ncccc1-c1ncc2[nH]c(=O)n(Cc3ccc(-c4nc(C(F)(F)F)cn4C)cc3)c2n1 [Compound I-323, 2-(2-(dimethylamino)pyridin-3-yl)-9-(4-(1-methyl-4-(trifluoromethyl)-1H-imidazol-2-yl)benzyl)-7,9-dihydro-8H-purin-8-one]",< 50
4,"CCN(CC)c1ncccc1-c1ncc2[nH]c(=O)n(Cc3ccc(-c4nc(C(F)(F)F)cn4C)cc3)c2n1 [Compound I-324, 2-(2-(diethylamino)pyridin-3-yl)-9-(4-(1-methyl-4-(trifluoromethyl)-1H-imidazol-2-yl)benzyl)-7,9-dihydro-8H-purin-8-one]",< 50
5,"Cn1cc(C(F)(F)F)nc1-c1ccc(Cn2c(=O)[nH]c3cnc(-c4cccnc4N4CCCC4)nc32)cc1 [Compound I-325, 9-(4-(1-methyl-4-(trifluoromethyl)-1H-imidazol-2-yl)benzyl)-2-(2-(pyrrolidin-1-yl)pyridin-3-yl)-7,9-dihydro-8H-purin-8-one]",< 50
6,"Cn1cc(C(F)(F)F)nc1-c1ccc(Cn2c(=O)[nH]c3cnc(-c4cccnc4N4CCCCC4)nc32)cc1 [Compound I-326, 9-(4-(1-methyl-4-(trifluoromethyl)-1H-imidazol-2-yl)benzyl)-2-(2-(piperidin-1-yl)pyridin-3-yl)-7,9-dihydro-8H-purin-8-one]",< 50
7,"COCCN(C)c1ncccc1-c1ncc2[nH]c(=O)n(Cc3ccc(-c4nc(C(F)(F)F)cn4C)cc3)c2n1 [Compound I-327, 2-(2-((2-methoxyethyl)(methyl)amino)pyridin-3-yl)-9-(4-(1-methyl-4-(trifluoromethyl)-1H-imidazol-2-yl)benzyl)-7,9-dihydro-8H-purin-8-one]",50 to 200
8,"CN1CCN(c2ncccc2-c2ncc3[nH]c(=O)n(Cc4ccc(-c5nc(C(F)(F)F)cn5C)cc4)c3n2)CC1 [Compound I-328, 9-(4-(1-methyl-4-(trifluoromethyl)-1H-imidazol-2-yl)benzyl)-2-(2-(4-methylpiperazin-1-yl)pyridin-3-yl)-7,9-dihydro-8H-purin-8-one]",200 to 2000
9,"Cn1cc(C(F)(F)F)nc1-c1ccc(Cn2c(=O)[nH]c3cnc(-c4cccnc4N4CCC(C(F)(F)F)CC4)nc32)cc1 [Compound I-329, 9-(4-(1-methyl-4-(trifluoromethyl)-1H-imidazol-2-yl)benzyl)-2-(2-(4-(trifluoromethyl)piperidin-1-yl)pyridin-3-yl)-7,9-dihydro-8H-purin-8-one]",< 50
10,"CC(C)N(C)c1ncccc1-c1ncc2[nH]c(=O)n(Cc3ccc(-c4nc(C(F)(F)F)cn4C)cc3)c2n1 [Compound I-330, 2-(2-(isopropyl(methyl)amino)pyridin-3-yl)-9-(4-(1-methyl-4-(trifluoromethyl)-1H-imidazol-2-yl)benzyl)-7,9-dihydro-8H-purin-8-one]",50 to 200
11,"CCN(C)c1ncccc1-c1ncc2[nH]c(=O)n(Cc3ccc(-c4nc(C(F)(F)F)cn4C)cc3)c2n1 [Compound I-331, 2-(2-(ethyl(methyl)amino)pyridin-3-yl)-9-(4-(1-methyl-4-(trifluoromethyl)-1H-imidazol-2-yl)benzyl)-7,9-dihydro-8H-purin-8-one]",< 50
12,"CN(CC(F)(F)F)c1ncccc1-c1ncc2[nH]c(=O)n(Cc3ccc(-c4nc(C(F)(F)F)cn4C)cc3)c2n1 [Compound I-332, 2-(2-(methyl(2,2,2-trifluoroethyl)amino)pyridin-3-yl)-9-(4-(1-methyl-4-(trifluoromethyl)-1H-imidazol-2-yl)benzyl)-7,9-dihydro-8H-purin-8-one]",< 50
13,"Cn1cc(C(F)(F)F)nc1-c1ccc(Cn2c(=O)[nH]c3cnc(-c4cccnc4N4CCOCC4)nc32)cc1 [Compound I-333, 9-(4-(1-methyl-4-(trifluoromethyl)-1H-imidazol-2-yl)benzyl)-2-(2-morpholinopyridin-3-yl)-7,9-dihydro-8H-purin-8-one]",50 to 200
14,"Cn1cc(C(F)(F)F)nc1-c1ccc(Cn2c(=O)[nH]c3cnc(-c4cccnc4N4CC(F)C4)nc32)cc1 [Compound I-334, 2-(2-(3-fluoroazetidin-1-yl)pyridin-3-yl)-9-(4-(1-methyl-4-(trifluoromethyl)-1H-imidazol-2-yl)benzyl)-7,9-dihydro-8H-purin-8-one]",< 50
15,"Cn1cc(C(F)(F)F)nc1-c1ccc(Cn2c(=O)[nH]c3cnc(-c4cccnc4N4CCC4)nc32)cc1 [Compound I-335, 2-(2-(azetidin-1-yl)pyridin-3-yl)-9-(4-(1-methyl-4-(trifluoromethyl)-1H-imidazol-2-yl)benzyl)-7,9-dihydro-8H-purin-8-one]",50 to 200
16,"Cn1cc(C(F)(F)F)nc1-c1ccc(Cn2c(=O)[nH]c3cnc(-c4cccnc4N4CC(F)(F)C4)nc32)cc1 [Compound I-336, 2-(2-(3,3-difluoroazetidin-1-yl)pyridin-3-yl)-9-(4-(1-methyl-4-(trifluoromethyl)-1H-imidazol-2-yl)benzyl)-7,9-dihydro-8H-purin-8-one]",< 50
17,"Cn1cc(C(F)(F)F)nc1-c1ccc(Cn2c(=O)[nH]c3cnc(-c4cccnc4N4CC(C(F)(F)F)C4)nc32)cc1 [Compound I-337, 9-(4-(1-methyl-4-(trifluoromethyl)-1H-imidazol-2-yl)benzyl)-2-(2-(3-(trifluoromethyl)azetidin-1-yl)pyridin-3-yl)-7,9-dihydro-8H-purin-8-one]",< 50
18,"CC(C)c1ccccc1-c1ncc2[nH]c(=O)n(Cc3ccc(-n4cc(C(C)(C)N)nn4)cc3)c2n1 [Compound I-338, 9-(4-(4-(2-aminopropan-2-yl)-1H-1,2,3-triazol-1-yl)benzyl)-2-(2-isopropylphenyl)-7,9-dihydro-8H-purin-8-one]",> 2000
19,"CC(C)c1ccccc1-c1ncc2[nH]c(=O)n(Cc3ccc(-n4cc(CN(C)C)nn4)cc3)c2n1 [Compound I-339, 9-(4-(4-((dimethylamino)methyl)-1H-1,2,3-triazol-1-yl)benzyl)-2-(2-isopropylphenyl)-7,9-dihydro-8H-purin-8-one]",> 2000
20,"CC(C)c1ccccc1-c1ncc2[nH]c(=O)n(Cc3ccc(-n4cc(-c5ccccc5)nn4)cc3)c2n1 [Compound I-340, 2-(2-isopropylphenyl)-9-(4-(4-phenyl-1H-1,2,3-triazol-1-yl)benzyl)-7,9-dihydro-8H-purin-8-one]",200 to 2000
21,"COc1ccc(-c2cn(-c3ccc(Cn4c(=O)[nH]c5cnc(-c6ccccc6C(C)C)nc54)cc3)nn2)cc1 [Compound I-341, 2-(2-isopropylphenyl)-9-(4-(4-(4-methoxyphenyl)-1H-1,2,3-triazol-1-yl)benzyl)-7,9-dihydro-8H-purin-8-one]",200 to 2000
